# Assay: Particle size distribution
# Type: physicochemical
# [1] = solid obtained by the process of the example
# [2] = crystallized using ethyl acetate as taught in U.S. Pat. No. 5,399,578, after passing through 30 mesh sieve
SMILES,Particle size distribution d10 [1] [μ],Particle size distribution d50 [1] [μ],Particle size distribution d90 [1] [μ],Particle size distribution d10 [2] [μ],Particle size distribution d50 [2] [μ],Particle size distribution d90 [2] [μ]
"CCCCC(=O)N(Cc1ccc(-c2ccccc2-c2nnn[nH]2)cc1)[C@H](C(=O)O)C(C)C [Example 1, Valsartan]",1.906,4.134,7.554,,,
"CCCCC(=O)N(Cc1ccc(-c2ccccc2-c2nnn[nH]2)cc1)[C@H](C(=O)O)C(C)C [Example 2, Valsartan]",1.686,4.420,8.684,,,
"CCCCC(=O)N(Cc1ccc(-c2ccccc2-c2nnn[nH]2)cc1)[C@H](C(=O)O)C(C)C [Example 3, Valsartan]",1.5421,3.850,7.869,,,
"CCCCC(=O)N(Cc1ccc(-c2ccccc2-c2nnn[nH]2)cc1)[C@H](C(=O)O)C(C)C [Example 4, Valsartan]",2.011,4.636,8.611,,,
"CCCCC(=O)N(Cc1ccc(-c2ccccc2-c2nnn[nH]2)cc1)[C@H](C(=O)O)C(C)C [Example 5 A, Valsartan]",1.869,18.401,202,,,
"CCCCC(=O)N(Cc1ccc(-c2ccccc2-c2nnn[nH]2)cc1)[C@H](C(=O)O)C(C)C [Example 5 B, Valsartan]",0.71,2.687,8.42,,,
"CCCCC(=O)N(Cc1ccc(-c2ccccc2-c2nnn[nH]2)cc1)[C@H](C(=O)O)C(C)C [Valsartan, N-(1-Oxopentyl)-N-[[2′-(1H-tetrazol-5-yl)[1,1′-biphenyl]-4-yl]methyl]-L-valine]",,,,5.039,77.29,383.55

# From patent publication US20090304797A1, “Process for the Preparation of Micronized Valsartan” (priority 2006, published 2009)
